Measurements reported in ChEMBL document CHEMBL1629679, “Extended-spectrum cephalosporinases in Pseudomonas aeruginosa” (2009).

Assays:
Pseudomonas aeruginosa [1] = assay: Antimicrobial activity against AmpC overproducing Pseudomonas aeruginosa isolate Pae-beta-08 with PDC-2 variant by Etest; type: functional
Pseudomonas aeruginosa [2] = assay: microbe, parasite or virus in culture; type: functional; details: KG2505a
Pseudomonas aeruginosa [3] = assay: Antimicrobial activity against AmpC overproducing Pseudomonas aeruginosa isolate Pae-beta-15 with PDC-2 variant by Etest; type: functional
Pseudomonas aeruginosa [4] = assay: Antimicrobial activity against AmpC overproducing Pseudomonas aeruginosa isolate Pae-beta-22 with PDC-4 variant by Etest; type: functional
Pseudomonas aeruginosa [5] = assay: Antimicrobial activity against Pseudomonas aeruginosa isolate Pae-beta-29 with PDC-8 variant by Etest; type: functional
Pseudomonas aeruginosa [6] = assay: microbe, parasite or virus in culture; details: 12B
Pseudomonas aeruginosa [7] = assay: Antimicrobial activity against Pseudomonas aeruginosa isolate Pae-beta-01 with PDC-1 variant by Etest; type: functional
Pseudomonas aeruginosa [8] = assay: Antimicrobial activity against AmpC overproducing Pseudomonas aeruginosa isolate Pae-beta-04 with PDC-2 variant by Etest; type: functional
Pseudomonas aeruginosa [9] = assay: Antimicrobial activity against AmpC overproducing Pseudomonas aeruginosa isolate Pae-beta-09 with PDC-2 variant by Etest; type: functional
Pseudomonas aeruginosa [10] = assay: Antimicrobial activity against AmpC overproducing Pseudomonas aeruginosa isolate Pae-beta-12 with PDC-2 variant by Etest; type: functional
Pseudomonas aeruginosa [11] = assay: Antimicrobial activity against Pseudomonas aeruginosa isolate Pae-beta-30 with PDC-8 variant by Etest; type: functional
Pseudomonas aeruginosa [12] = assay: Antimicrobial activity against AmpC overproducing Pseudomonas aeruginosa isolate Pae-beta-32 with PDC-10 variant by Etest; type: functional
Pseudomonas aeruginosa [13] = assay: Antimicrobial activity against AmpC overproducing Pseudomonas aeruginosa isolate Pae-beta-20 with PDC-4 variant by Etest; type: functional
Pseudomonas aeruginosa [14] = assay: microbe, parasite or virus in culture; details: isolate Pae-beta-26
Pseudomonas aeruginosa [15] = assay: Antimicrobial activity against AmpC overproducing Pseudomonas aeruginosa isolate Pae-beta-03 with PDC-2 variant by Etest; type: functional
Pseudomonas aeruginosa [16] = assay: Antimicrobial activity against AmpC overproducing Pseudomonas aeruginosa isolate Pae-beta-13 with PDC-2 variant by Etest; type: functional
Pseudomonas aeruginosa [17] = assay: Antimicrobial activity against AmpC overproducing Pseudomonas aeruginosa isolate Pae-beta-16 with PDC-3 variant by Etest; type: functional
Pseudomonas aeruginosa [18] = assay: microbe, parasite or virus in culture; type: functional; details: KG2505a; remark: listed apart in the source
Pseudomonas aeruginosa [19] = assay: microbe, parasite or virus in culture; details: 12B; remark: listed apart in the source
Pseudomonas aeruginosa [20] = assay: microbe, parasite or virus in culture; details: PAO1
Pseudomonas aeruginosa [21] = assay: Antimicrobial activity against Pseudomonas aeruginosa isolate Pae-beta-02 with PDC-1 variant by Etest; type: functional
Pseudomonas aeruginosa [22] = assay: microbe, parasite or virus in culture; type: functional; details: KG2505a; remark: listed apart in the source
Pseudomonas aeruginosa [23] = assay: microbe, parasite or virus in culture; details: 12B; remark: listed apart in the source
Pseudomonas aeruginosa [24] = assay: Antimicrobial activity against AmpC overproducing Pseudomonas aeruginosa isolate Pae-beta-17 with PDC-3 variant by Etest; type: functional
Pseudomonas aeruginosa [25] = assay: Antimicrobial activity against AmpC overproducing Pseudomonas aeruginosa isolate Pae-beta-06 with PDC-2 variant by Etest; type: functional
Pseudomonas aeruginosa [26] = assay: Antimicrobial activity against AmpC overproducing Pseudomonas aeruginosa isolate Pae-beta-27 with PDC-7 variant by Etest; type: functional
Pseudomonas aeruginosa [27] = assay: microbe, parasite or virus in culture; type: functional; details: KG2505a; remark: listed apart in the source
Pseudomonas aeruginosa [28] = assay: Antimicrobial activity against AmpC overproducing Pseudomonas aeruginosa isolate Pae-beta-28 with PDC-7 variant by Etest; type: functional
Pseudomonas aeruginosa [29] = assay: Antimicrobial activity against AmpC overproducing Pseudomonas aeruginosa isolate Pae-beta-25 with PDC-6 variant by Etest; type: functional
Pseudomonas aeruginosa [30] = assay: microbe, parasite or virus in culture; type: functional; details: 12B
Pseudomonas aeruginosa [31] = assay: Antimicrobial activity against AmpC overproducing Pseudomonas aeruginosa isolate Pae-beta-24 with PDC-5 variant by Etest; type: functional
Pseudomonas aeruginosa [32] = assay: Antimicrobial activity against AmpC overproducing Pseudomonas aeruginosa isolate Pae-beta-21 with PDC-4 variant by Etest; type: functional
Pseudomonas aeruginosa [33] = assay: Antimicrobial activity against Pseudomonas aeruginosa isolate Pae-beta-19 with PDC-3 variant by Etest; type: functional
Pseudomonas aeruginosa [34] = assay: Antimicrobial activity against Pseudomonas aeruginosa isolate Pae-beta-31 with PDC-9 variant by Etest; type: functional
Pseudomonas aeruginosa [35] = assay: Antimicrobial activity against AmpC overproducing Pseudomonas aeruginosa isolate Pae-beta-14 with PDC-2 variant by Etest; type: functional
Pseudomonas aeruginosa [36] = assay: Antimicrobial activity against AmpC overproducing Pseudomonas aeruginosa isolate Pae-beta-18 with PDC-3 variant by Etest; type: functional
Pseudomonas aeruginosa [37] = assay: Antimicrobial activity against AmpC overproducing Pseudomonas aeruginosa isolate Pae-beta-23 with PDC-5 variant by Etest; type: functional
Pseudomonas aeruginosa [38] = assay: Antimicrobial activity against AmpC overproducing Pseudomonas aeruginosa isolate Pae-beta-07 with PDC-2 variant by Etest; type: functional
Pseudomonas aeruginosa [39] = assay: microbe, parasite or virus in culture; type: functional; details: KG2505a; remark: listed apart in the source
Pseudomonas aeruginosa [40] = assay: Antimicrobial activity against AmpC overproducing Pseudomonas aeruginosa isolate Pae-beta-11 with PDC-2 variant by Etest; type: functional
Pseudomonas aeruginosa [41] = assay: Antimicrobial activity against Pseudomonas aeruginosa isolate Pae-beta-05 with PDC-2 variant by Etest; type: functional
Pseudomonas aeruginosa [42] = assay: Antimicrobial activity against AmpC overproducing Pseudomonas aeruginosa isolate Pae-beta-10 with PDC-2 variant by Etest; type: functional
Pseudomonas aeruginosa [43] = assay: microbe, parasite or virus in culture; details: 12B; remark: listed apart in the source

Measured: MIC

CC(C)(O/N=C(\C(=O)N[C@@H]1C(=O)N2C(C(=O)[O-])=C(C[n+]3ccccc3)CS[C@H]12)c1csc(N)n1)C(=O)O [CEFTAZIDIME]
64 µg/mL: Pseudomonas aeruginosa [19] | Pseudomonas aeruginosa [24] | Pseudomonas aeruginosa [31] | Pseudomonas aeruginosa [37]
16 µg/mL: Pseudomonas aeruginosa [1] | Pseudomonas aeruginosa [2] | Pseudomonas aeruginosa [4] | Pseudomonas aeruginosa [9] | Pseudomonas aeruginosa [10] | Pseudomonas aeruginosa [15] | Pseudomonas aeruginosa [22] | Pseudomonas aeruginosa [25] | Pseudomonas aeruginosa [26] | Pseudomonas aeruginosa [28] | Pseudomonas aeruginosa [35] | Pseudomonas aeruginosa [38] | Pseudomonas aeruginosa [40] | Pseudomonas aeruginosa [42]
8 µg/mL: Pseudomonas aeruginosa [5] | Pseudomonas aeruginosa [7] | Pseudomonas aeruginosa [11] | Pseudomonas aeruginosa [13] | Pseudomonas aeruginosa [21] | Pseudomonas aeruginosa [30] | Pseudomonas aeruginosa [33]
4 µg/mL: Pseudomonas aeruginosa [16] | Pseudomonas aeruginosa [39]
1 µg/mL: Pseudomonas aeruginosa [20]
128 µg/mL: Pseudomonas aeruginosa [36]
32 µg/mL: all other assays above

C[C@@H](O)[C@H]1C(=O)N2C(C(=O)O)=C(SCCNC=N)C[C@H]12 [IMIPENEM ANHYDROUS]
64 µg/mL: Pseudomonas aeruginosa [12] | Pseudomonas aeruginosa [36]
8 µg/mL: Pseudomonas aeruginosa [4] | Pseudomonas aeruginosa [11] | Pseudomonas aeruginosa [29]
32 µg/mL: Pseudomonas aeruginosa [17] | Pseudomonas aeruginosa [24] | Pseudomonas aeruginosa [26] | Pseudomonas aeruginosa [31] | Pseudomonas aeruginosa [37]
not listed: Pseudomonas aeruginosa [2] | Pseudomonas aeruginosa [6] | Pseudomonas aeruginosa [7] | Pseudomonas aeruginosa [14] | Pseudomonas aeruginosa [18] | Pseudomonas aeruginosa [19] | Pseudomonas aeruginosa [20] | Pseudomonas aeruginosa [21] | Pseudomonas aeruginosa [22] | Pseudomonas aeruginosa [23] | Pseudomonas aeruginosa [27] | Pseudomonas aeruginosa [30] | Pseudomonas aeruginosa [33] | Pseudomonas aeruginosa [39] | Pseudomonas aeruginosa [43]
16 µg/mL: all other assays above

CO/N=C(\C(=O)N[C@@H]1C(=O)N2C(C(=O)[O-])=C(C[N+]3(C)CCCC3)CS[C@H]12)c1csc(N)n1
128 µg/mL: Pseudomonas aeruginosa [3] | Pseudomonas aeruginosa [36]
64 µg/mL: Pseudomonas aeruginosa [15] | Pseudomonas aeruginosa [26] | Pseudomonas aeruginosa [31]
16 µg/mL: Pseudomonas aeruginosa [2] | Pseudomonas aeruginosa [4] | Pseudomonas aeruginosa [13] | Pseudomonas aeruginosa [16] | Pseudomonas aeruginosa [22] | Pseudomonas aeruginosa [28] | Pseudomonas aeruginosa [41]
2 µg/mL: Pseudomonas aeruginosa [20]
4 µg/mL: Pseudomonas aeruginosa [18] | Pseudomonas aeruginosa [27] | Pseudomonas aeruginosa [30]
1 µg/mL: Pseudomonas aeruginosa [39]
8 µg/mL: Pseudomonas aeruginosa [11]
not listed: Pseudomonas aeruginosa [5] | Pseudomonas aeruginosa [6] | Pseudomonas aeruginosa [7] | Pseudomonas aeruginosa [14] | Pseudomonas aeruginosa [21] | Pseudomonas aeruginosa [33] | Pseudomonas aeruginosa [43]
32 µg/mL: all other assays above

C[C@@H](O)[C@H]1C(=O)N2C(C(=O)O)=C(S[C@@H]3CN[C@H](C(=O)N(C)C)C3)[C@H](C)[C@H]12 [MEROPENEM]
0.12 µg/mL: Pseudomonas aeruginosa [39]
1 µg/mL: Pseudomonas aeruginosa [30]
0.25 µg/mL: Pseudomonas aeruginosa [2] | Pseudomonas aeruginosa [18] | Pseudomonas aeruginosa [22] | Pseudomonas aeruginosa [27]
2 µg/mL: Pseudomonas aeruginosa [6] | Pseudomonas aeruginosa [19] | Pseudomonas aeruginosa [23] | Pseudomonas aeruginosa [43]
